# Measured values: patent publication EP0745597A2, “Novel melatonergic indanyl piperazines or homopiperazines” (BRISTOL-MYERS SQUIBB COMPANY, priority 1995, dated 1996)
# Target: T1, human ML1B receptor (Homo sapiens, UniProt P49286)
# T1 construct: host or cells: NIH 3T3 cells, stably transfected; membrane homogenates
# T1 sequence (P49286 1-362): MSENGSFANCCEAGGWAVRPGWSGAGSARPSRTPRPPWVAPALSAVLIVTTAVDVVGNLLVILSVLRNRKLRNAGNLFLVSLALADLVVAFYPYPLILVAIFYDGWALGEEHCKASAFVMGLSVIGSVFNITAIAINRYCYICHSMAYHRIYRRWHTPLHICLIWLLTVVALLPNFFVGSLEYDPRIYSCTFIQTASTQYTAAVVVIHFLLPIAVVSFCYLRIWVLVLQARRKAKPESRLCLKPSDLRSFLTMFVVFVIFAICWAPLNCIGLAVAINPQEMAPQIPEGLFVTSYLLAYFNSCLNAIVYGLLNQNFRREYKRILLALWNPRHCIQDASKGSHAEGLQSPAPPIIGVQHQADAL
# Test: Measurement of binding to melatonergic receptors (2-[125I]-iodomelatonin, membranes of transfected NIH 3T3 cells)
# Details: 2-[125I]-Iodomelatonin 200 pM, 37 °C for 1 hour, NIH 3T3 cells stably transfected with the human ML1B receptor; read-out: Melatonin Binding
# Method: The melatonergic binding affinities of various compounds of Formula I were determined by the method of Reppert, S. M., Weaver, D. R., and Ebisawa, R. (Neuron, Volume 13, 1177-1185, 1994). The assays were incubated at 37 °C for 1 hour, and the reaction was terminated by filtration. The filters were washed with wash buffer. […] The reagents, membrane and other techniques used in the melatonergic binding assays are more fully described below: • 1. Reagents: • (a) 50 mM Tris buffer containing 12.5 mM MgCl2, and 2mM EDTA, pH 7.4 at 37 °C. • (b) Wash buffer: 20 mM Tris base containing 2 mM MgCl2. pH 7.4 at room temperature. • (c) Melatonin (10^-5 M final concentration). • (d) 2-[^125I]-Iodomelatonin, 200 pM final concentration Source: NEN • 2. Membrane preparation: NIH 3T3 cells stably transfected with the human ML1B receptor were obtained from S.M. Reppert and maintained. Cells were pelleted when confluent. The supernatant was discarded and the pellets frozen. For preparing membrane homogenates, the pellets are thawed on ice and resuspended in TME buffer, Tris base, MgCl2, EDTA (pH 7.4 at 37 °C ), supplemented with aprotinin, leupeptin, and […]. The cells were then homogenized and centrifuged. The resulting pellet was resuspended with a Dounce homogenizer in TME and frozen. At assay, a small aliquot was thawed on ice and resuspended in TME buffer. […] These compounds are considered active.
row,Structure (SMILES),IC50
1,C=C(C)C(=O)N1CCN(C2CCc3ccc(OC)cc32)CC1 (stereo not drawn) [1-[(1-Methyl-ethenyl)carbonyl]-4-(6-methoxy-indan-1-yl)piperazine],< 10 nM
2,CCCOc1ccc2c(c1)C(N1CCN(C(=O)C3CC3)CC1)CC2 (stereo not drawn) [1-(Cyclopropylcarbonyl)-4-[6-(1-propyloxy)indan-1-yl]piperazine],10 to 100 nM
3,"COc1ccc2c(c1)C(N1CCN(C(=O)c3sccc3Br)CC1)CC2 (single isomer, unassigned; (-)) [(-)1-[(3-Bromothien-2-yl)carbonyl]-4-(6-Methoxy-indan-1-yl)piperazine]",< 10 nM
4,COc1ccc2c(c1)C(N1CCN(C(=O)c3cccs3)CC1)CC2 (stereo not drawn) [4-(6-Methoxy-indan-1-yl)-1-[(2-thienyl)carbonyl]piperazine],< 10 nM
5,"COc1ccc2c(c1)C(N1CCN(C(=O)c3c[nH]c4ccccc34)CC1)CC2 (single isomer, unassigned; (-)) [(-)-1-[(1H-indol-3-yl)carbonyl]-4-(6-methoxy-indan-1-yl)piperazine]",100 to 250 nM
6,COc1ccc2c(c1)C(N1CCN(C(=O)C3CC3)CC1)CC2 (stereo not drawn) [1-(Cyclopropylcarbonyl)-4-(6-methoxy-indan-1-yl)piperazine],< 10 nM
7,COc1ccc2c(c1)C(N1CCN(C(=O)NC(C)C)CC1)CC2 (stereo not drawn) [N-(1-Methylethyl)-4-(6-methoxy-indan-1-yl)piperazine-1-carboxamide],10 to 100 nM
8,COc1ccc2c(c1)C(N1CCN(C(=O)C3CCC3)CC1)CC2 (stereo not drawn) [1-(Cyclobutylcarbonyl)-4-(6-methoxy-indan-1-yl)piperazine],< 10 nM
9,O=C(C1CC1)N1CCN(C2CCc3ccccc32)CC1 (stereo not drawn) [1-(Cyclopropylcarbonyl)-4-(indan-1-yl)piperazine],100 to 250 nM
10,CCc1ccc2c(c1)C(N1CCN(C(=O)C3CC3)CC1)CC2 (stereo not drawn) [1-(Cyclopropylcarbonyl)-4-(6-ethyl-indan-1-yl)piperazine],100 to 250 nM
11,COc1cc2c(cc1F)CCC2N1CCN(C(=O)C(C)C)CC1 (stereo not drawn) [4-(5-Fluoro-6-methoxy-indan-1-yl)-1-(2-methylpropanoyl)piperazine],10 to 100 nM
12,"COc1ccc2c(c1)C(N1CCN(C(=O)C(C)(C)C)CC1)CC2 (stereo not drawn) [1-(2,2-dimethyl-propanoyl)-4-(6-methoxy-indan-1-yl)piperazine]",10 to 100 nM
13,CCOc1ccc2c(c1)C(N1CCN(C(=O)C3CC3)CC1)CC2 (stereo not drawn) [1-(Cyclopropylcarbonyl)-4-(6-ethoxy-indan-1-yl)piperazine],< 10 nM
14,"COc1ccc2c(c1)C(N1CCN(C(=O)C3(C)CCCCC3)CC1)CC2 (single isomer, unassigned; (-)) [(-)-1-[(1-Methylcyclohexyl)carbonyl]-4-(6-methoxy-indan-1-yl)piperazine]",100 to 250 nM
15,"COc1ccc2c(c1)C(N1CCN(C(=O)c3occc3C)CC1)CC2 (single isomer, unassigned; (-)) [(-)-4-(6-Methoxy-indan-1-yl)-1-[(3-methyl-furan-2-yl)carbonyl]piperazine]",< 10 nM
16,"COc1ccc2c(c1)C(N1CCN(C(=O)N(C)C)CC1)CC2 (stereo not drawn) [N,N-Dimethyl-4-(6-methoxy-indan-1-yl)piperazine-1-carboxamide]",10 to 100 nM
17,CCCCCCCCCOc1ccc2c(c1)C(N1CCN(C(=O)NCC)CC1)CC2 (stereo not drawn) [N-Ethyl-4-(6-nonyloxy-indan-1-yl)piperazine-1-carboxamide],10 to 100 nM
18,"CCNC(=O)N1CCN(C2CCc3ccc(OC)cc32)CC1 (single isomer, unassigned; (-)) [(-)-N-Ethyl-4-(6-methoxy-indan-1-yl)piperazine-1-carboxamide]",< 10 nM
19,CNC(=O)N1CCN(C2CCc3ccc(OC)cc32)CC1 (stereo not drawn) [N-Methyl-4-(6-methoxy-indan-1-yl)piperazine-1-carboxamide],< 10 nM
20,COc1ccc2c(c1)C(N1CCN(C(C)=O)CC1)CC2 (stereo not drawn) [1-Acetyl-4-(6-methoxy-indan-1-yl)piperazine],100 to 250 nM
21,"C=CCCC(=O)N1CCN(C2CCc3ccc(OC)cc32)CC1 (single isomer, unassigned; (-)) [(-)-4-(6-Methoxy-indan-1-yl)-1-(4-pentenoyl)piperazine]",100 to 250 nM
22,"COc1ccc2c(c1)C(N1CCN(C(=O)c3ccc(Br)o3)CC1)CC2 (single isomer, unassigned; (-)) [(-)-1-[(5-Bromo-furan-2-yl)carbonyl]-4-(6-methoxy-indan-1-yl)piperazine]",10 to 100 nM
23,CCC(=O)N1CCN(C2CCc3ccc(OC)cc32)CC1 (stereo not drawn) [4-(6-Methoxy-indan-1-yl)-1-propanoylpiperazine],10 to 100 nM
24,CCNC(=O)N1CCCN(C2CCc3ccc(OC)cc32)CC1 (stereo not drawn) [N-Ethyl-4-(6-methoxy-indan-1-yl)homopiperazine-1-carboxamide],10 to 100 nM
